Patent publication US20180280485A1, “THIORETINAMIDE COMPOSITIONS FOR THE APOPTOSIS OF MALIGNANT CELLS WHILE PREVENTING THE APOPTOSIS OF NORMAL CELLS AND RELATED METHODS” (priority 2017, published 2018)

Assays:
[1] = Toxicity in animal tests or human trials; assay type: in vivo; conditions: 7.5 mg/70 kg/day to 300 mg/70 kg/day
normal fibroblasts = conditions: in vitro; cited from earlier work
[2] = test system: human pancreatic adenocarcinoma cells; conditions: in vitro, cited from earlier work; for growth of cells: without cellular degeneration
[3] = test system: human adenocarcinoma cells; assay: Growth of cultured human adenocarcinoma cells (Example 7); assay type: cell-based; conditions: for cell growth (10^5): cell number day 4, 10^5 cells passaged day 0, no addition 7.4 ± 2.7; for cell growth (10^5) / cell growth (% of control): TR2Co/TR 30 mg/dL, DATS/NBS 1.0 mg/dL; for cell growth (% of control): day 4; for inhibition of growth of cultured human adenocarcinoma cells: each compound alone, Table 2
Method: Human adenocarcinoma cells were cultured in RPMI medium with added fetal bovine serum and antibiotics, as reported by McCully K S et al in Research Communications in Chemical Pathology and Pharmacology, 1992; 77: 125-128 and reviewed by Ariga T et al in Biofactors 2006; 26: 93-103. Equal numbers (10^5) of adenocarcinoma cells were trypsinized and passaged on day 0, and the cells were refed with media containing test compounds on days 1 and 3. Cell numbers were determined by trypsinization on day 4. Thioretinaco (TR2Co) and thioretinamide (TR) were synthesized, as previously described (McCully U.S. Pat. No. 4,618,685; McCully U.S. Pat. No. 4,925,931) and dissolved in absolute ethanol. Authentic diallyl trisulfide ([…]) and napabucasin (NBS) were solubilized in propylene glycol. Propylene glycol (PG) was added to the ethanol solutions of the test compounds, the ethanol was evaporated under reduced pressure at 37° C., and the resulting solutions in propylene glycol were added to the culture media.

Caenorhabtidis elegans = conditions: exposure to diallyl trisulfide; cited from earlier work
[4] = test system: human colon carcinoma cells; conditions: in vitro; read-out: inhibitory concentration (IC50) against proliferation; cited from earlier work
[5] = test system: Normal control cell lines; conditions: versus human leukemia and myeloma cell lines; cited from earlier work

| Compound | toxicity (weight loss, nausea, impairment of liver function, headache, skin lesions) [1] | growth and lactate production (normal fibroblasts) | growth of cells [2] | lactate production [2] | cell growth (10^5) [3] | cell growth (% of control) [3] | inhibition of growth of cultured human adenocarcinoma cells [3] | increase of lifespan (Caenorhabtidis elegans) | IC50 [4] | increase in concentration required to produce apoptosis and growth inhibition in normal control cell lines [5] |
| --- | --- | --- | --- | --- | --- | --- | --- | --- | --- | --- |
| CC1=C(/C=C/C(C)=C/C=C/C(C)=C/C(=O)NC2CCSC2=O)C(C)(C)CCC1 (centres unmarked) [TR, N-homocysteine thiolactonyl retinamide] | no evidence of toxicity | unaffected | inhibited | increased | 1.4 ± 0.50 10^5 | 19 % of control | significantly inhibit growth | – | – | – |
| CC1=C(/C=C/C(C)=C/C=C/C(C)=C/CO)C(C)(C)CCC1 [retinol, reference compound] | no evidence of toxicity | – | – | – | – | – | – | – | – | – |
| N-homocysteine thiolactonyl retinamido cobalamin [TR2Co] | – | unaffected | inhibited | increased | 2.5 ± 0.82 10^5 | 33 % of control | significantly inhibit growth | – | – | – |
| C=CCSSSCC=C [DATS, diallyl trisulfide, reference compound] | – | – | – | – | 2.7 ± 0.57 10^5 | 36 % of control | significantly inhibit growth | approximately 12% | 5 µM | – |
| Cc1cc2c(o1)C(=O)c1ccccc1C2=O [FHQ3, 2-methyl-naphtho[2,3-b]furan-4,9 dione] | – | – | – | – | – | – | – | – | – | 10 fold |
| O=C(O)Cc1cc2c(o1)C(=O)c1ccccc1C2=O [NBS, 2-carboxymethyl-naphtho[2,3-b]furan-4,9-dione, reference compound] | – | – | – | – | 2.3 ± 0.52 10^5 | 28 % of control | significantly inhibit growth | – | – | – |
